Results from patent US20030004157A1, “Use of NK-1 receptor antagonists against benign prostatic hyperplasia” (priority 2001, published 2003).

System: Beagle dogs
Assay: 39-week toxicity study in the dog
Assay type: in vivo
Conditions: 39 weeks; for PROSTATE diff. % vs. control (relative organ weight) / PROSTATE per 100 g BW relative (mean relative organ weight) / TESTES diff. % vs. control (relative organ weight) / TESTES per 100 g BW relative (mean relative organ weight) / PROSTATE absolute (mean absolute organ weight) / TESTES absolute (mean absolute organ weight): male Beagle dogs, oral gavage, SEDDS formulation; for PROSTATE absolute (mean absolute organ weight) / TESTES absolute (mean absolute organ weight): in g (unit assumed); for reduced weights of the prostate gland compared to the control / microscopic changes of the prostate (animals affected): males
Protocol: In a nine-month study four groups of Beagle dogs (4 animals/gender/group; 5-6 months of age at study start) received oral doses (gavage) of 0 (placebo), 6, 20 and 60 mg/kg/d of 2-(3,5-bis-trifluoromethyl-phenyl)-N-methyl-N-(6-morpholin-4-yl-4-o-tolyl-pyridin-3-yl)-isobutyramide as a SEDDS formulation for 39 weeks. The following variables were investigated: clinical signs, body weights, food consumption, ophthalmoscopy before and at the end of the study, electrocardiography, heart rate, toxicokinetics at different time-points, clinical pathology (hematology, biochemistry, urinalysis) in 3-months intervals, necropsy and tissue preservation, organ weights and histopathology.
Mean absolute organ weights were adjusted to 100 g of the mean terminal body weights=>mean relative organ weights.
Mean relative organ weights were compared to the corresponding control=>% deviation.

Cc1ccccc1-c1cc(N2CCOCC2)ncc1N(C)C(=O)C(C)(C)c1cc(C(F)(F)F)cc(C(F)(F)F)c1 [2-(3,5-bis-trifluoromethyl-phenyl)-N-methyl-N-(6-morpholin-4-yl-4-o-tolyl-pyridin-3-yl)-isobutyramide]
abnormalities in organ systems other than prostate (6, 20 and 60 mg/kg/d oral): no overt abnormalities in any other organ system | liver changes (6, 20 and 60 mg/kg/d oral): Mild changes in the liver (hepatocyte hypertrophy with slightly increased organ weights) | PROSTATE diff. % vs. control (relative organ weight) (6 mg/kg/d): −24% | PROSTATE per 100 g BW relative (mean relative organ weight) (6 mg/kg/d): 0.059 | TESTES diff. % vs. control (relative organ weight) (6 mg/kg/d): +1% | TESTES per 100 g BW relative (mean relative organ weight) (6 mg/kg/d): 0.1803 | PROSTATE absolute (mean absolute organ weight) (6 mg/kg/d): 8.066 | TESTES absolute (mean absolute organ weight) (6 mg/kg/d): 24.577 | PROSTATE diff. % vs. control (relative organ weight) (20 mg/kg/d): −37% | PROSTATE per 100 g BW relative (mean relative organ weight) (20 mg/kg/d): 0.049 | TESTES diff. % vs. control (relative organ weight) (20 mg/kg/d): +6% | TESTES per 100 g BW relative (mean relative organ weight) (20 mg/kg/d): 0.1804 | PROSTATE absolute (mean absolute organ weight) (20 mg/kg/d): 6.413 | TESTES absolute (mean absolute organ weight) (20 mg/kg/d): 23.432 | PROSTATE diff. % vs. control (relative organ weight) (60 mg/kg/d): −58% | PROSTATE per 100 g BW relative (mean relative organ weight) (60 mg/kg/d): 0.033 | TESTES diff. % vs. control (relative organ weight) (60 mg/kg/d): +9% | TESTES per 100 g BW relative (mean relative organ weight) (60 mg/kg/d): 0.1853 | PROSTATE absolute (mean absolute organ weight) (60 mg/kg/d): 4.429 | TESTES absolute (mean absolute organ weight) (60 mg/kg/d): 24.753 | reduced weights of the prostate gland compared to the control (6 mg/kg/d oral): insignificant trend | microscopic changes of the prostate (animals affected) (20 mg/kg/d oral): most | reduced weights of the prostate gland compared to the control (20 mg/kg/d oral): 37% | microscopic changes of the prostate (animals affected) (60 mg/kg/d oral): all males | reduced weights of the prostate gland compared to the control (60 mg/kg/d oral): 58%
